Test results taken from patent publication US12338237B2, “Derivatives having 1,2,3,4-tetrahydronaphthalene moiety or pharmaceutically acceptable salt thereof and pharmaceutical compositions comprising the same” (YUHAN CORPORATION, priority 2019, dated 2025).

Tests used:
[1] = molecular target: glucosylceramide synthase (GCS) (Homo sapiens (Human), UniProt Q16739); assay: Evaluation of inhibitory activities against GCS (enzyme reaction with A549 cell lysate, NBD C6-ceramide, HPLC fluorescence); format: biochemical; details: GCS activity in A549 cell lysate, 37° C. for 90 minutes
Procedure, shortened: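 Lysate of A549 cells in 50 mM HEPES pH 7.3 incubated with test compound and NBD C6-ceramide at 37 °C for 90 min; lipids extracted with chloroform/methanol and GlcCer and ceramide peaks quantified by HPLC fluorescence. Activity from GlcCer area fraction, normalised between DMSO and ibiglustat controls.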

GM1 production = assay: cells; format: cell-based; details: Homo sapiens, Jurkat, 72 h

glucosylceramide synthase (GCS), sequence (Q16739 whole entry, looked up): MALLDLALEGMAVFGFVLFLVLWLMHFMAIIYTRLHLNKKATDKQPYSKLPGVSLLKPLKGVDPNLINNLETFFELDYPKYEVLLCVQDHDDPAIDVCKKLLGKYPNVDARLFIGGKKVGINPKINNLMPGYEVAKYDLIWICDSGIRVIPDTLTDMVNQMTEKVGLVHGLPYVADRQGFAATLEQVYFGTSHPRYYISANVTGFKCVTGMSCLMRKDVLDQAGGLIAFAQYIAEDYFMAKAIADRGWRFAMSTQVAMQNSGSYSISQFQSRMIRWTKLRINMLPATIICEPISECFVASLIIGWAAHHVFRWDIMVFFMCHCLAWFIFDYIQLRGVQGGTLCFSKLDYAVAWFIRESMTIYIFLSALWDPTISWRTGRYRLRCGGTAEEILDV

`CC1(C)CCc2ccc(-c3ccc(C(F)(F)F)cc3)cc2C1NC(=O)O[C@@H]1CN2CCC1CC2` (stereo partly drawn) [Example 153, (S)-quinuclidin-3-yl (2,2-dimethyl-7-(4-(trifluoromethyl)phenyl)-1,2,3,4-tetrahydronaphthalen-1-yl)carbamate] was tested, and the IC50 [1] was 4.43 nM and the IC50 (GM1 production) was 5.54 nM.
Work on `CC1(C)CCc2ccc(-c3ccc(OC(F)(F)F)cc3)cc2C1NC(=O)O[C@@H]1CN2CCC1CC2` (stereo partly drawn) [Example 154, (S)-quinuclidin-3-yl (2,2-dimethyl-7-(4-(trifluoromethoxy)phenyl)-1,2,3,4-tetrahydronaphthalen-1-yl)carbamate] yielded an IC50 [1] of 8.4 nM and an IC50 (GM1 production) of 17.7 nM.
`CC1(C)CCc2ccc(-c3cccc(F)c3)cc2C1NC(=O)O[C@@H]1CN2CCC1CC2` (stereo partly drawn) [Example 155, (S)-quinuclidin-3-yl (7-(3-fluorophenyl)-2,2-dimethyl-1,2,3,4-tetrahydronaphthalen-1-yl)carbamate] was tested, and the IC50 [1] was 21 nM and the IC50 (GM1 production) was 108 nM.
Compound `CC1(C)CCc2ccc(-c3cccc(Cl)c3)cc2C1NC(=O)O[C@@H]1CN2CCC1CC2` (stereo partly drawn) [Example 156, (S)-quinuclidin-3-yl (7-(3-chlorophenyl)-2,2-dimethyl-1,2,3,4-tetrahydronaphthalen-1-yl)carbamate] has an IC50 [1] of 19.6 nM and an IC50 (GM1 production) of 132 nM.
`CC1(C)CCc2ccc(-c3cccc(C(F)(F)F)c3)cc2C1NC(=O)O[C@@H]1CN2CCC1CC2` (stereo partly drawn) [Example 157, (S)-quinuclidin-3-yl (2,2-dimethyl-7-(3-(trifluoromethyl)phenyl)-1,2,3,4-tetrahydronaphthalen-1-yl)carbamate] was tested, and the IC50 [1] was 32.2 nM and the IC50 (GM1 production) was 120 nM.
`CC1(C)CCc2ccc(-c3cccc(OC(F)(F)F)c3)cc2C1NC(=O)O[C@@H]1CN2CCC1CC2` (stereo partly drawn) [Example 158, (S)-quinuclidin-3-yl (2,2-dimethyl-7-(3-(trifluoromethoxy)phenyl)-1,2,3,4-tetrahydronaphthalen-1-yl)carbamate] was tested, and the IC50 [1] was 34.2 nM and the IC50 (GM1 production) was 249 nM.
`CC1(C)CCc2ccc(-c3ccccc3F)cc2C1NC(=O)O[C@@H]1CN2CCC1CC2` (stereo partly drawn) [Example 159, (S)-quinuclidin-3-yl (7-(2-fluorophenyl)-2,2-dimethyl-1,2,3,4-tetrahydronaphthalen-1-yl)carbamate] gave an IC50 [1] of 10.9 nM and an IC50 (GM1 production) of 49.8 nM.
For `CC1(C)CCc2ccc(-c3ccccc3Cl)cc2C1NC(=O)O[C@@H]1CN2CCC1CC2` (stereo partly drawn) [Example 160, (S)-quinuclidin-3-yl (7-(2-chlorophenyl)-2,2-dimethyl-1,2,3,4-tetrahydronaphthalen-1-yl)carbamate], the IC50 [1] was 14.5 nM and the IC50 (GM1 production) was 67.7 nM.
For `CC1(C)CCc2ccc(-c3ccccc3C(F)(F)F)cc2C1NC(=O)O[C@@H]1CN2CCC1CC2` (stereo partly drawn) [Example 161, (S)-quinuclidin-3-yl (2,2-dimethyl-7-(2-(trifluoromethyl)phenyl)-1,2,3,4-tetrahydronaphthalen-1-yl)carbamate], the IC50 [1] was 26.5 nM and the IC50 (GM1 production) was 122 nM.
`CC1(C)CCc2ccc(-c3ccccc3OC(F)(F)F)cc2C1NC(=O)O[C@@H]1CN2CCC1CC2` (stereo partly drawn) [Example 162, (S)-quinuclidin-3-yl (2,2-dimethyl-7-(2-(trifluoromethoxy)phenyl)-1,2,3,4-tetrahydronaphthalen-1-yl)carbamate] gave an IC50 [1] of 10.6 nM and an IC50 (GM1 production) of 57.4 nM.
`CC1(C)CCc2ccc(-c3ccc(OC(F)F)cc3)cc2C1NC(=O)O[C@@H]1CN2CCC1CC2` (stereo partly drawn) [Example 164, (S)-quinuclidin-3-yl (7-(4-(difluoromethoxy)phenyl)-2,2-dimethyl-1,2,3,4-tetrahydronaphthalen-1-yl)carbamate] showed an IC50 [1] of 9.23 nM and an IC50 (GM1 production) of 26.1 nM.
`COCCOc1ccc(-c2ccc3c(c2)C(NC(=O)O[C@@H]2CN4CCC2CC4)C(C)(C)CC3)cc1` (stereo partly drawn) [Example 165, (S)-quinuclidin-3-yl (7-(4-(2-methoxyethoxy)phenyl)-2,2-dimethyl-1,2,3,4-tetrahydronaphthalen-1-yl)carbamate] showed an IC50 [1] of 18.4 nM and an IC50 (GM1 production) of 24.3 nM.
